Results published in ChEMBL document CHEMBL5465560, “Selectivity Literature for EUbOPEN Chemogenomic Library” (2024).
One block for each compound: values may come before it.

Columns and labels:
[1] = biological target: CDK3/Cyclin E (Homo sapiens) (UniProt P24864+Q00526); test: Selectivity interaction (LanthaScreen Eu Kinase Binding Assay) EUB0001632a CDK3; type: protein-complex assay; conditions: at 10 µM
[2] = biological target: Homeodomain-interacting protein kinase 3 (Homo sapiens, UniProt Q9H422); test: Selectivity interaction (Kinase panel (Z-LYTE Assay)) EUB0001632a HIPK3; conditions: at 10 µM
[3] = biological target: Serine/threonine-protein kinase PAK 4 (Homo sapiens, UniProt O96013); test: Selectivity interaction (KinomeScan (DiscoverX)) EUB0000666a PAK4; conditions: at 10 µM
[4] = biological target: Serine/threonine-protein kinase Chk2 (Homo sapiens) (UniProt O96017); test: Selectivity interaction (KinomeScan (DiscoverX)) EUB0000666a CHEK2; conditions: at 10 µM
[5] = biological target: Maternal embryonic leucine zipper kinase (Homo sapiens) (UniProt Q14680); test: Selectivity interaction (KinomeScan (DiscoverX)) EUB0000666a MELK; conditions: at 10 µM
[6] = biological target: Ribosomal protein S6 kinase beta-1 (Homo sapiens, UniProt P23443); test: Selectivity interaction (Kinase panel (literature)) EUB0001199aCl RPS6KB1; conditions: at 1 µM
[7] = biological target: Serine/threonine-protein kinase tousled-like 2 (Homo sapiens) (UniProt Q86UE8); test: Selectivity interaction (ActivX KiNativ screen (kinase selectivity in THP-1 cell lysates)) EUB0000639a TLK2; type: subcellular; conditions: lysate, at 5 µM
[8] = biological target: T1, Serine/threonine-protein kinase MAK (Homo sapiens) (UniProt P20794); test: Selectivity interaction (KinomeScan (DiscoverX)) EUB0001049a MAK; conditions: at 1 µM
T1 sequence (whole entry): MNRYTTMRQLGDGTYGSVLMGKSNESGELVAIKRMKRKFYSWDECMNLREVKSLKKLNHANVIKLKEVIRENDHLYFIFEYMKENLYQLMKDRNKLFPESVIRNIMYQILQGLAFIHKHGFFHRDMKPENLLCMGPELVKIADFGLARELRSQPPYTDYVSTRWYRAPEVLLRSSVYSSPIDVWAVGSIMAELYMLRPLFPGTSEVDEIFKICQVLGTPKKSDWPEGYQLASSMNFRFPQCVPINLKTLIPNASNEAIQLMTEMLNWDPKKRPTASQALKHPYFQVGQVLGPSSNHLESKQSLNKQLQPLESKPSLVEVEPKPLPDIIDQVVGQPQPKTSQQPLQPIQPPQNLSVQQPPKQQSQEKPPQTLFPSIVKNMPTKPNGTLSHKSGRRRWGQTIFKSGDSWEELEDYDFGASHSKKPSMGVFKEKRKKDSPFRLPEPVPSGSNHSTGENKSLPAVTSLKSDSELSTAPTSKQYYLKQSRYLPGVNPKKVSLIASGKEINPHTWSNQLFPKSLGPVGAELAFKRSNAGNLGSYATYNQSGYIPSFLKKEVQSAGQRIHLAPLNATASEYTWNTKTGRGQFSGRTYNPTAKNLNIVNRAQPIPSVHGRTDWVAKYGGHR

[9] = biological target: Mitotic checkpoint serine/threonine-protein kinase BUB1 (Homo sapiens, UniProt O43683); test: Selectivity interaction (Ambit KINOMEscan and KiNATiv profiling in Jurkat cells) EUB0000090b BUB1; type: cell-based; conditions: at 1 µM
[10] = biological target: Serine/threonine-protein kinase 26 (Homo sapiens, UniProt Q9P289); test: Selectivity interaction (Kinase panel (DSF assay)) EUB0001558a STK26
[11] = biological target: Tyrosine-protein kinase receptor UFO (Homo sapiens) (UniProt P30530); test: Selectivity interaction (KinomeScan (DiscoverX)) EUB0000229b AXL; conditions: at 10 µM
[12] = biological target: Insulin-like growth factor 1 receptor (Homo sapiens, UniProt P08069); test: Selectivity interaction (KinomeScan (DiscoverX)) EUB0000092b IGF1R; conditions: at 10 µM
[13] = biological target: Mitogen-activated protein kinase 10 (Homo sapiens, UniProt P53779); test: Selectivity interaction (KinomeScan (DiscoverX)) EUB0000092b MAPK10; conditions: at 10 µM
[14] = biological target: Receptor tyrosine-protein kinase erbB-3 (Homo sapiens) (UniProt P21860); test: Selectivity interaction (KinomeScan (DiscoverX)) EUB0000092b ERBB3; conditions: at 10 µM
[15] = biological target: T2, Serine/threonine-protein kinase TAO3 (Homo sapiens) (UniProt Q9H2K8); test: Selectivity interaction (KinomeScan (DiscoverX)) EUB0001619a TAOK3; conditions: at 1 µM
T2 sequence (whole entry): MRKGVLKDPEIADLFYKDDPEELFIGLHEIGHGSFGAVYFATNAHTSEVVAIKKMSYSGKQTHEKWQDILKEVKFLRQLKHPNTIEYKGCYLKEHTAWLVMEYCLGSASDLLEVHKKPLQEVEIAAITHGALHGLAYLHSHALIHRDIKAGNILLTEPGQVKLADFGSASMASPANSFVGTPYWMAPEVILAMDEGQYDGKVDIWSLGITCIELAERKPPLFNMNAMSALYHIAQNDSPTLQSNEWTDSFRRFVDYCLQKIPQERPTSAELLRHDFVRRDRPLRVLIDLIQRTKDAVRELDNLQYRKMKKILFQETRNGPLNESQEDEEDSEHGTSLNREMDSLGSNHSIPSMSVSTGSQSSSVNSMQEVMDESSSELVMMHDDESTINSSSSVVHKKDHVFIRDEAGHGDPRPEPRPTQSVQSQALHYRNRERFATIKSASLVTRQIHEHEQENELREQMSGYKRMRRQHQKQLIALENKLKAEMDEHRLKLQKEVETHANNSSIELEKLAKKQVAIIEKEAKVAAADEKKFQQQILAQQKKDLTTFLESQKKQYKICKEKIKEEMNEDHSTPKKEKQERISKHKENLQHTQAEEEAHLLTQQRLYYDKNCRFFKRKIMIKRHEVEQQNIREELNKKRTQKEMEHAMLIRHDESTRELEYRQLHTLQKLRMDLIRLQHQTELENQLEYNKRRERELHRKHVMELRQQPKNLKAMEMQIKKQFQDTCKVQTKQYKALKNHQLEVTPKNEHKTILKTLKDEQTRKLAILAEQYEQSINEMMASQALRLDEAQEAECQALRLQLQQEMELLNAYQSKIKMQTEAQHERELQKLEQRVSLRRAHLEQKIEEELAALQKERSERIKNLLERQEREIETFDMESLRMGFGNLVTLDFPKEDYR

[16] = biological target: Serine/threonine-protein kinase ATR (Homo sapiens) (UniProt Q13535); test: Selectivity interaction (ActivX KiNativ screen (ex vivo kinase selectivity in human PBMCs)) EUB0001619a ATR; type: cell-based; conditions: PBMC, at 1 µM

Sequence of Tyrosine-protein kinase receptor UFO (Homo sapiens) (P30530 whole entry): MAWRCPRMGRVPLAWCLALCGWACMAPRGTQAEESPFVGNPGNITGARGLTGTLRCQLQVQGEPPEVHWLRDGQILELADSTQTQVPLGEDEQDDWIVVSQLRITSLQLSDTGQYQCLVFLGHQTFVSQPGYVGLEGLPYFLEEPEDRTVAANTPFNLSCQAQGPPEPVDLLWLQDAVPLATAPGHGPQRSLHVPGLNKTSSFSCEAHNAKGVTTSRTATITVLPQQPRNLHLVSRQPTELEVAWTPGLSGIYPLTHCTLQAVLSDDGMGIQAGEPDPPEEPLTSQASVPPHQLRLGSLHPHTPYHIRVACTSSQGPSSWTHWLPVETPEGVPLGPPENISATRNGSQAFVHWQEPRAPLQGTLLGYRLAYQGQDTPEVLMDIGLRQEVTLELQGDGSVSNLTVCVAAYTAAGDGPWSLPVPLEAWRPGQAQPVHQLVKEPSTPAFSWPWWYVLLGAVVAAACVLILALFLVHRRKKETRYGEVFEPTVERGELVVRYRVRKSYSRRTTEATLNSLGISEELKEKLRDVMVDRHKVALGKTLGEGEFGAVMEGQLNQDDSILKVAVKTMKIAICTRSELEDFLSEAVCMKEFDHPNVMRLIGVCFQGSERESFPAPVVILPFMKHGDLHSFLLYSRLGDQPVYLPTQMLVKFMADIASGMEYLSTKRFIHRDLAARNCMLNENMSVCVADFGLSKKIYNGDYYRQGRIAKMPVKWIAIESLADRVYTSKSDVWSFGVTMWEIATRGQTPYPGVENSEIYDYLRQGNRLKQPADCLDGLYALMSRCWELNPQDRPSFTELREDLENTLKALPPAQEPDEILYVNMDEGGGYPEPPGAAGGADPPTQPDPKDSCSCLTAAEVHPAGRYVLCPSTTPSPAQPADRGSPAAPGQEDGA
Sequence of Ribosomal protein S6 kinase beta-1 (P23443 whole entry, looked up): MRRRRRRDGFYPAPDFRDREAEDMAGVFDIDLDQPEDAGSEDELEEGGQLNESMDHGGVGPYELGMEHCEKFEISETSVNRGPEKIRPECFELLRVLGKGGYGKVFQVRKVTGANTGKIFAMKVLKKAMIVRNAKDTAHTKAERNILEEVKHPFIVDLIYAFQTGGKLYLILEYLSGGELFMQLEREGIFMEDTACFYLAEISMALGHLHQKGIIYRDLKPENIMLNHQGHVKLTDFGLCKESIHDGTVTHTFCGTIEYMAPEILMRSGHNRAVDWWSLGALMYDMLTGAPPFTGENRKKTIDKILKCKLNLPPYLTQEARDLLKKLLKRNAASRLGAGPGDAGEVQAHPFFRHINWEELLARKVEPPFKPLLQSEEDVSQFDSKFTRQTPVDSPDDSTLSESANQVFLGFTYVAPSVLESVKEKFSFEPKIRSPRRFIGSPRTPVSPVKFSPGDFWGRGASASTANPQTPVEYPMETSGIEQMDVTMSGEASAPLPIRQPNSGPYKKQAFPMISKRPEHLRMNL
Sequence of Serine/threonine-protein kinase 26 (Q9P289 2-416 limits assumed): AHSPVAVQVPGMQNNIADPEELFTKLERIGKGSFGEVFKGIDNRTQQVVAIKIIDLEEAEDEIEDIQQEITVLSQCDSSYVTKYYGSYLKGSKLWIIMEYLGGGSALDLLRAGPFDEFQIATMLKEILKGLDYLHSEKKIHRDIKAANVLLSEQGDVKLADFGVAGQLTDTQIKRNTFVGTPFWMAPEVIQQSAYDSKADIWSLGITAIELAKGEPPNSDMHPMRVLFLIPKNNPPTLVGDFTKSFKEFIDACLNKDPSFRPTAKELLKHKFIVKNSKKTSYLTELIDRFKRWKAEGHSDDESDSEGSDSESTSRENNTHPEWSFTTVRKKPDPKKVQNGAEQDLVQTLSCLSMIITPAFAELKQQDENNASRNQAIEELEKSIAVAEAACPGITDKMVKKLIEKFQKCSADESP
Sequence of Serine/threonine-protein kinase PAK 4 (O96013 whole entry, looked up): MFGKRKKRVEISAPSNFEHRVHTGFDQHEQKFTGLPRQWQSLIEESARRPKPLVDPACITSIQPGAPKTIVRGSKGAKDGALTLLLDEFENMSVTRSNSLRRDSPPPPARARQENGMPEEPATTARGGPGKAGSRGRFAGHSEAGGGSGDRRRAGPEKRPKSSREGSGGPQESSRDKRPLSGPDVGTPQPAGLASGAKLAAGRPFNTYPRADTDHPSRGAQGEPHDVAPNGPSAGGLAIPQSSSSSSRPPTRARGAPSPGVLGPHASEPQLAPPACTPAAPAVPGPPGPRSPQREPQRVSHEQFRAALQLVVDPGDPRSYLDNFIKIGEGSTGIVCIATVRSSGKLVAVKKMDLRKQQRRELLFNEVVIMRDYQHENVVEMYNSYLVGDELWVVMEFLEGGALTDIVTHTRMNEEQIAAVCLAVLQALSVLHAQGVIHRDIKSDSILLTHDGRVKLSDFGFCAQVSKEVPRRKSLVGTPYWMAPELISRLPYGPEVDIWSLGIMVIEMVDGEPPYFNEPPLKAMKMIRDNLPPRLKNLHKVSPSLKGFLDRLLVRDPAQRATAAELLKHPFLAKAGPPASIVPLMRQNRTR
Sequence of Serine/threonine-protein kinase Chk2 (Homo sapiens) (O96017 whole entry): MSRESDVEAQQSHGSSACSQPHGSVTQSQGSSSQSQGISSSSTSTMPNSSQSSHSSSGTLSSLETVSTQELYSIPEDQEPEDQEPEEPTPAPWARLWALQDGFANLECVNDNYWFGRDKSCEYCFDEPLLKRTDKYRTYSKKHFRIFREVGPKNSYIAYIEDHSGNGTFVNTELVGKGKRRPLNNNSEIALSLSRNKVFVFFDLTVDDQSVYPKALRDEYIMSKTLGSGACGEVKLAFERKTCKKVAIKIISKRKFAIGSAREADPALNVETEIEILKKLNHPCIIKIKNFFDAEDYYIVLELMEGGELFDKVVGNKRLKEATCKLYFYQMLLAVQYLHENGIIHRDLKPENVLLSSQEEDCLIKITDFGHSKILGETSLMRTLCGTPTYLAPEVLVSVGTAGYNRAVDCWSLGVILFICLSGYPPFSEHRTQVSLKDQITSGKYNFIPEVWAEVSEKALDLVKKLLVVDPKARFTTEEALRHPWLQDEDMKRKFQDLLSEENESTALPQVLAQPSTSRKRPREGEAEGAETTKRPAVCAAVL
Sequence of Homeodomain-interacting protein kinase 3 (Q9H422 whole entry, looked up): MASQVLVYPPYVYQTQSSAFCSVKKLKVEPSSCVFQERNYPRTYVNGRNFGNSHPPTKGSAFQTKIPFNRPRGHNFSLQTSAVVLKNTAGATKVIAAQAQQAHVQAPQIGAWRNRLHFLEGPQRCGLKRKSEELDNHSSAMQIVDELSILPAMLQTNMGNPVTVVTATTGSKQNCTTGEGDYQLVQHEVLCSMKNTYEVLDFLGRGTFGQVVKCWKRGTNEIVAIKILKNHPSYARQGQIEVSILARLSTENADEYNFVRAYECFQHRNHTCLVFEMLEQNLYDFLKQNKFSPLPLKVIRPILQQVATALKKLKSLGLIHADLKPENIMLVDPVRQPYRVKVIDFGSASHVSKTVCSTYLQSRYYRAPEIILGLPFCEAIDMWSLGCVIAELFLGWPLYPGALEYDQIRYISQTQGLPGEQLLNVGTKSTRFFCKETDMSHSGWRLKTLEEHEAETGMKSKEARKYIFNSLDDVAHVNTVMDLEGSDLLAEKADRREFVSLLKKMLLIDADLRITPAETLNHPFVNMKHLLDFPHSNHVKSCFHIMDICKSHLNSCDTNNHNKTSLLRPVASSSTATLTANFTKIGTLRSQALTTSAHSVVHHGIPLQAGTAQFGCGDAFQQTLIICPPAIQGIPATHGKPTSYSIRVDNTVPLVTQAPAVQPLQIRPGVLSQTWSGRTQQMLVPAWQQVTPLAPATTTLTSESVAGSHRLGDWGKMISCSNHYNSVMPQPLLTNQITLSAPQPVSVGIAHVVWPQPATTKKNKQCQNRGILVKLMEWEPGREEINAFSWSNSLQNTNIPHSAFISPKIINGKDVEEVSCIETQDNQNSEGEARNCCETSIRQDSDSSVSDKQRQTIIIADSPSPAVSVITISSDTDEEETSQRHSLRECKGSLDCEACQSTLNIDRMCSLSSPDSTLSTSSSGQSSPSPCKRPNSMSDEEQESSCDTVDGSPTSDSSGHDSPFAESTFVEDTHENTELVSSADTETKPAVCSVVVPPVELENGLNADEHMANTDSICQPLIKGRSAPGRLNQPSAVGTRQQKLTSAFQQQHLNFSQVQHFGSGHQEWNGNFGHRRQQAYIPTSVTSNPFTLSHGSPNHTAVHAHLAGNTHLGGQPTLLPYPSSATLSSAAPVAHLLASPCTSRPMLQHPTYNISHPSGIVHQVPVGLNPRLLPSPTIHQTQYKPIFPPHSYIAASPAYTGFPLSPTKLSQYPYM
Sequence of Mitogen-activated protein kinase 10 (P53779 whole entry): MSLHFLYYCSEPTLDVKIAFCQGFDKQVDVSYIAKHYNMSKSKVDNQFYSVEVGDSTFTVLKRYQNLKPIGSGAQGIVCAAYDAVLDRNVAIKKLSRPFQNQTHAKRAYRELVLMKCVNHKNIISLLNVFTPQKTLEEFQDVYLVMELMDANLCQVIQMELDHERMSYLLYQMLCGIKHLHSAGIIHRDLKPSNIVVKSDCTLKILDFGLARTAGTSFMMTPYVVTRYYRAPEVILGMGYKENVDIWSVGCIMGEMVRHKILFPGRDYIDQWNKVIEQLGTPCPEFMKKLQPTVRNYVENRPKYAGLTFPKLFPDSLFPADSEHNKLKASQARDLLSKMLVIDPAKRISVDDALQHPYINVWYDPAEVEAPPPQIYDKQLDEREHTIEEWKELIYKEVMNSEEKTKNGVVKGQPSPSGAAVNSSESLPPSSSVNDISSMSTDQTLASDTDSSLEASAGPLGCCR

% of inhibition [1]: -151%
% of control [2]: 0.256%
SMILES: Cn1cc(-n2cnc3c(NCc4nc5cc(Cl)c(Cl)cc5[nH]4)nc(N4CCOCC4)nc32)cn1

SMILES: O=C(NOC[C@H](O)CO)c1ccc(F)c(F)c1Nc1ccc(I)cc1F
% of control [3]: 100%
% of control [4]: 86%
% of control [5]: 80%

% of inhibition [6]: -3%
SMILES: CN1Cc2nccc(-c3cn(C)nc3-c3ccc(F)cc3)c2C1=O

% of inhibition [7]: 80.5%
SMILES: CC[C@@H]1[C@H](F)C(=O)N[C@@H]1COc1nccc2cc(C(N)=O)c(OC)cc12 [ZIMLOVISERTIB]

SMILES: COc1cc(Nc2nc(C)cc(-c3cnn4nc(OC)ccc34)n2)cc(C(F)(F)F)c1
% of control [8]: 84%

SMILES: CN(C)C/C=C/C(=O)Nc1ccc(C(=O)N2CCCC(Nc3ncc(Cl)c(-c4c[nH]c5ccccc45)n3)C2)cc1 (stereo unspecified)
% of control [9]: 96%

SMILES: CC(C)(O)[C@H](F)CN1Cc2cc(NC(=O)c3cnn4cccnc34)c(N3CCOCC3)cc2C1=O
dTM [10]: 0.4 K

SMILES: COc1cc(N(C)c2ccnc3ccc(C(F)(F)F)cc23)cc(OC)c1OC
% binding [11]: 86%

SMILES: CCC(=O)N1CCN(c2ccc(-n3c(=O)ccc4cnc5ccc(-c6cnc7ccccc7c6)cc5c43)cc2C(F)(F)F)CC1
% of control [12]: 94%
% of control [13]: 31%
% of control [14]: 44%

SMILES: N#Cc1cccc(-c2c[nH]c3ncnc(N4CCOCC4)c23)c1
% of control [15]: 36%
% of inhibition [16]: 25%
